According to patent US11186573B2, “Inhibitors of ROR gamma” (Vitae Pharmaceuticals, LLC, priority 2017, dated 2021):
“Also recorded” adds a separate entry of the source. Structures can show the parent of a compound that is named as a salt.

How the values were obtained:
Assay type in all cases: physicochemical
[1] = Dynamic Vapor Sorption (DVS) moisture uptake
[2] = Oxidation/degradation during salt screening and salt preparation; settings: for degradation during preparation: salt preparation / air-drying
Protocol: A salt/co-crystal screening was conducted under 127 conditions with 20 salt/co-crystal co-formers and seven solvent systems. For each condition, approximately 20 mg of Compound 1 was dispersed in the selected solvent in a glass vial and then salt/co-crystal co-former was added. Observation of slurries were followed by isolation and analysis of the resulting solids. Even though some crystalline solids were isolated and analyzed by XRPD, discoloration, possibly associated with decomposition was also observed (Table 1). Salt-screening experiments yielding a unique XRPD pattern were analyzed by HPLC-UV and were all determined to be primarily composed of degradants.
With the exception of the HBr salt, salt screening was unsuccessful in identifying further options for new forms of Compound 1 because of degradation. […] For example, solvent systems in which Compound 1 has limited solubility were chosen for formation of the HCl and sulfates salts to limit oxidation, while providing enough solubility to promote conversion to crystalline salts. However, this approach is time consuming and not favorable for large scale manufacturing methods.

[3] = Slurry in acetone/water (1:1 v/v), hydrate stability at water activity; settings: aw=0.91, acetone/water 1:1 v/v, slurried one week at ambient
Excerpt: Form D can also isolated from the amorphous bis-hydrogen bromide salt form of Compound 1 in a slurry experiment comprising acetone/water (1:1 v/v). For example, a saturated solution the amorphous bis-hydrogen bromide salt form om acetone/water (1:1 v/v) was slurried for one week at ambient and the solid was harvested to obtain Form D. The water activity (aw) of an equal volume mixture of acetone and water is 0.91. See SSCI internal report, Water Activity Calculations using UNIFAC Calculator, SR-20150515.01, dated Jul. 23, 2015. When solvent-free polymorphs are considered, the relative thermodynamic stability of two polymorphs is determined by the Gibbs free energy difference at a given temperature and pressure. However, when hydrate forms are considered, the water activity in the solvent contributes to the relative physical stability and thus, the resulting form. See Qu H, Louhi-Kultanen M, Kallas J. Solubility and stability of anhydrate/hydrate in solvent mixtures. Int J Pharm. 2006; 321:101-107 and Zhu H, Grant D J W. Influence of water activity in organic solvent+water mixtures on the nature of the crystallizing drug phase. 2. Ampicillin. Int J Pharm. 1996; 139:33-43.

[4] = Solubility in re-slurry solvents

Br.CCS(=O)(=O)c1ccc(CNC(=O)c2cnc3c(c2)CN(C[C@H]2CC[C@H](C(F)(F)F)CC2)[C@H]3C(C)C)nc1 [mono-hydrogen bromide salt]
amount of water absorbed relative to the corresponding bis-hydrogen bromide form ([1]; DVS, FIGS. 8 and 16): about twice the amount of water
degradation during preparation [2]: did not degrade during preparation

CCS(=O)(=O)c1ccc(CNC(=O)c2cnc3c(c2)CN(C[C@H]2CC[C@H](C(F)(F)F)CC2)[C@H]3C(C)C)nc1 [Form D]
moisture uptake compared with the other solid forms ([1]; DVS isotherm plots, FIG. 16 vs FIGS. 4, 8, 12): significantly less moisture update; also recorded: significantly less than the other forms
stability of the hydrate at water activity [3]: stable
solubility in isopropyl acetate/water mixture compared with heptane/water mixture [4]: greater
solubility in IPAc compared with n-heptane ([4]; re-slurry solvents): slightly higher

adipic acid
composition of isolated salt-screening solid by HPLC-UV ([2]; salt/co-crystal screening of Compound 1): primarily degradants

CCS(=O)(=O)c1ccc(CNC(=O)c2cnc3c(c2)CN(C[C@H]2CC[C@H](C(F)(F)F)CC2)[C@H]3C(C)C)nc1 [Compound 1]
susceptibility to oxidation ([2]; particularly in solution): highly susceptible to oxidation

CCS(=O)(=O)c1ccc(CNC(=O)c2cnc3c(c2)CN(C[C@H]2CC[C@H](C(F)(F)F)CC2)[C@H]3C(C)C)nc1 [bis-hydrogen bromide salt]
weight change (moisture uptake) ([1]; DVS isotherm, FIG. 16): ≤ 5%
degradation during preparation [2]: did not degrade during preparation

O=S(=O)(O)O [sulfate]
degradation during preparation [2]: less degradation than others
